50 compounds from ChEMBL document CHEMBL1150994, “The chemical synthesis of large random peptide libraries and their use for the discovery of ligands for macromolecular acceptors” (Bioorg Med Chem Lett, 1993) can be followed below.

Experiment [1] deals with Monoclonal antibody (mAb) 3E7. Nature of the experiment: Affinity towards anti-beta-endorphin MAb(Clone 3-E7) using [3H][Leu5]-enkephalin as labeled ligand.
The test system of experiment [2] is Monoclonal antibody (mAb) 3E7. Nature of the experiment: Affinity towards anti-beta-endorphin MAb(Clone 3-E7) using [3H][Leu5]-enkephalin as labeled ligand at 10 uM concentration; not active.

Active and inactive are the calls of the source. The calls are words filed in the database; no cut-off is given here. Where a SMILES comes first, the peptide text is derived from it. [ ]: non-standard residue; d: D form. βAla = NCCC(=O)O

Usually IC50 stands for the concentration that inhibits the measured activity by half. `NC(=O)CC[C@H](NC(=O)[C@H](Cc1ccccc1)NC(=O)CNC(=O)CNC(=O)[C@@H](N)Cc1ccccc1)C(N)=O` (H-FGGFQ-NH2) returned an IC50 in experiment [1] of 40.1 nM.
In experiment [1], `NC(=O)CC[C@H](NC(=O)[C@H](Cc1ccccc1)NC(=O)CNC(=O)CNC(=O)[C@@H](N)Cc1ccccc1)C(=O)O` (H-FGGFQ-OH) yielded a 50% inhibitory concentration (IC50) of 15 nM.
Compound `NC(=O)CCNC(=O)[C@H](CCC(N)=O)NC(=O)[C@H](Cc1ccccc1)NC(=O)CNC(=O)CNC(=O)[C@@H](N)Cc1ccccc1` (H-FGGFQ[βAla]-NH2) yielded an IC50 in experiment [1] of 45.4 nM. Compared with the last compound, the IC50 is about 3-fold higher.
In turn, `NC(=O)CC[C@H](NC(=O)[C@H](Cc1ccccc1)NC(=O)CNC(=O)CNC(=O)[C@@H](N)Cc1ccccc1)C(=O)NCCC(=O)O` (H-FGGFQ[βAla]-OH) yielded a half-inhibitory concentration (IC50) in experiment [1] of 39.4 nM.
On to `CC(C)C[C@H](N)C(=O)N[C@@H](Cc1ccc(O)cc1)C(=O)NCC(=O)NCC(=O)N[C@@H](Cc1ccccc1)C(=O)O` (H-LYGGF-OH), for which the outcome in experiment [2] was inactive.
With `CSCC[C@H](N)C(=O)N[C@@H](Cc1ccc(O)cc1)C(=O)NCC(=O)NCC(=O)N[C@@H](Cc1ccccc1)C(=O)O` (H-MYGGF-OH), in experiment [2], the outcome was inactive.
Turning to `NC(=O)C[C@H](N)C(=O)N[C@@H](Cc1ccc(O)cc1)C(=O)NCC(=O)NCC(=O)N[C@@H](Cc1ccccc1)C(=O)O` (H-NYGGF-OH), in experiment [2], the result was inactive.
The same measure, in the same setting: the result for `CC(C)C[C@H](NC(=O)[C@H](CC(C)C)NC(=O)CNC(=O)[C@H](Cc1ccc(O)cc1)NC(=O)[C@@H](N)CCCN=C(N)N)C(=O)O` (H-RYGLL-OH) reads “inactive”; that for `C[C@H](NC(=O)CNC(=O)[C@@H](N)Cc1ccc(O)cc1)C(=O)N[C@@H](Cc1ccccc1)C(=O)N[C@@H](Cc1ccccc1)C(=O)O` (H-YGAFF-OH), “inactive”; that for `CC[C@H](C)[C@H](NC(=O)[C@H](Cc1ccccc1)NC(=O)[C@H](C)NC(=O)CNC(=O)[C@@H](N)Cc1ccc(O)cc1)C(=O)O` (H-YGAFI-OH), “inactive”.
On to `CSCC[C@H](NC(=O)[C@H](Cc1ccccc1)NC(=O)[C@H](C)NC(=O)CNC(=O)[C@@H](N)Cc1ccc(O)cc1)C(=O)O` (H-YGAFM-OH), for which the outcome in experiment [2] was inactive.
Same read-out and setting: the same measure for `C[C@H](NC(=O)CNC(=O)[C@@H](N)Cc1ccc(O)cc1)C(=O)N[C@@H](Cc1ccccc1)C(=O)N[C@@H](CCC(N)=O)C(=O)O` (H-YGAFQ-OH): “inactive”; for `C[C@H](NC(=O)CNC(=O)[C@@H](N)Cc1ccc(O)cc1)C(=O)N[C@@H](Cc1ccccc1)C(=O)N[C@H](C(=O)O)[C@@H](C)O` (H-YGAFT-OH): “inactive”.
In experiment [1], `CC(C)C[C@H](NC(=O)[C@H](C)NC(=O)CNC(=O)[C@@H](N)Cc1ccc(O)cc1)C(=O)N[C@@H](CCC(N)=O)C(N)=O` (H-YGALQ-NH2) returned an IC50 of 2910 nM.
With `CC(C)C[C@H](NC(=O)[C@H](C)NC(=O)CNC(=O)[C@@H](N)Cc1ccc(O)cc1)C(=O)N[C@@H](CCC(N)=O)C(=O)NCCC(N)=O` (H-YGALQ[βAla]-NH2), the IC50 in experiment [1] amounted to 2870 nM.
On to `CC(C)C[C@H](NC(=O)[C@H](C)NC(=O)CNC(=O)[C@@H](N)Cc1ccc(O)cc1)C(=O)N[C@@H](CCC(N)=O)C(=O)NCCC(=O)O` (H-YGALQ[βAla]-OH), for which the IC50 in experiment [1] came out at 1470 nM.
`CC(C)C[C@H](NC(=O)[C@H](C)NC(=O)CNC(=O)[C@@H](N)Cc1ccc(O)cc1)C(=O)N[C@H](C(=O)O)[C@@H](C)O` (H-YGALT-OH): the outcome in experiment [2] was inactive.
Same read-out and setting: the result for `C[C@H](NC(=O)CNC(=O)[C@@H](N)Cc1ccc(O)cc1)C(=O)N[C@@H](Cc1c[nH]c2ccccc12)C(=O)N[C@@H](CC(=O)O)C(=O)O` (H-YGAWD-OH) reads “inactive”.
`C[C@H](NC(=O)[C@H](CCC(=O)O)NC(=O)CNC(=O)[C@@H](N)Cc1ccc(O)cc1)C(=O)N[C@@H](Cc1ccccc1)C(=O)O` (H-YGEAF-OH): in experiment [2], the outcome was inactive.
On the same count and under the same terms, the same measure for `NC(=O)CC[C@H](NC(=O)[C@H](Cc1ccccc1)NC(=O)[C@H](Cc1ccccc1)NC(=O)CNC(=O)[C@@H](N)Cc1ccc(O)cc1)C(=O)O` (H-YGFFQ-OH): “inactive”.
On to `C[C@H](NC(=O)[C@H](Cc1ccccc1)NC(=O)CNC(=O)CNC(=O)[C@@H](N)Cc1ccc(O)cc1)C(N)=O` (H-YGGFA-NH2), for which the IC50 in experiment [1] was 72 nM.
On the same count and under the same terms, the result for `C[C@H](NC(=O)[C@H](Cc1ccccc1)NC(=O)CNC(=O)CNC(=O)[C@@H](N)Cc1ccc(O)cc1)C(=O)NCCC(N)=O` (H-YGGFA[βAla]-NH2) reads 93.6 nM; that for `C[C@H](NC(=O)[C@H](Cc1ccccc1)NC(=O)CNC(=O)CNC(=O)[C@@H](N)Cc1ccc(O)cc1)C(=O)NCCC(=O)O` (H-YGGFA[βAla]-OH), 82.3 nM.
Take `CC[C@H](C)[C@H](NC(=O)[C@H](Cc1ccccc1)NC(=O)CNC(=O)CNC(=O)[C@@H](N)Cc1ccc(O)cc1)C(=O)O` (H-YGGFI-OH): in experiment [2], the outcome was inactive.
For the compound `CC(C)C[C@H](NC(=O)[C@H](Cc1ccccc1)NC(=O)CNC(=O)CNC(=O)[C@@H](N)Cc1ccc(O)cc1)C(=O)N[C@@H](C)C(N)=O` (H-YGGFLA-NH2), in experiment [1], the concentration for half-maximal inhibition (IC50) is 13.7 nM.
The same measure, in the same setting: the result for `CC(C)C[C@H](NC(=O)[C@H](Cc1ccccc1)NC(=O)CNC(=O)CNC(=O)[C@@H](N)Cc1ccc(O)cc1)C(=O)N[C@@H](C)C(=O)O` (H-YGGFLA-OH) reads 17.1 nM.
For the compound `NC(=O)CC[C@H](NC(=O)[C@H](Cc1ccccc1)NC(=O)CNC(=O)CNC(=O)[C@@H](N)Cc1ccc(O)cc1)C(=O)O` (H-YGGFQ-OH), the result in experiment [2] was inactive.
`C[C@@H](O)[C@H](NC(=O)[C@H](Cc1ccccc1)NC(=O)CNC(=O)CNC(=O)[C@@H](N)Cc1ccc(O)cc1)C(N)=O` (H-YGGFT-NH2) returned a half-inhibitory concentration (IC50) in experiment [1] of 65.2 nM.
On the same count and under the same terms, the same measure for `C[C@@H](O)[C@H](NC(=O)[C@H](Cc1ccccc1)NC(=O)CNC(=O)CNC(=O)[C@@H](N)Cc1ccc(O)cc1)C(=O)NCCC(N)=O` (H-YGGFT[βAla]-NH2): 43.3 nM.
Consider `N[C@@H](Cc1ccc(O)cc1)C(=O)NCC(=O)NCC(=O)NCC(=O)N[C@@H](Cc1ccccc1)C(=O)O` (H-YGGGF-OH), for which, in experiment [2], the result was inactive.
In the case of `C[C@H](NC(=O)[C@H](Cc1c[nH]cn1)NC(=O)CNC(=O)[C@@H](N)Cc1ccc(O)cc1)C(=O)N[C@@H](Cc1ccccc1)C(=O)O` (H-YGHAF-OH), in experiment [2], the result was inactive.
As for `CC(C)C[C@H](NC(=O)CNC(=O)[C@@H](N)Cc1ccc(O)cc1)C(=O)NCC(=O)N[C@@H](Cc1ccccc1)C(=O)O` (H-YGLGF-OH), the result in experiment [2] was inactive.
Same read-out and setting: the result for `CSCC[C@H](NC(=O)CNC(=O)[C@@H](N)Cc1ccc(O)cc1)C(=O)NCC(=O)N[C@@H](Cc1ccccc1)C(=O)O` (H-YGMGF-OH) reads “inactive”; that for `NC(=O)C[C@H](NC(=O)CNC(=O)[C@@H](N)Cc1ccc(O)cc1)C(=O)N[C@@H](Cc1ccccc1)C(=O)N[C@@H](Cc1ccccc1)C(=O)O` (H-YGNFF-OH), “inactive”; that for `N[C@@H](Cc1ccc(O)cc1)C(=O)NCC(=O)N1CCC[C@H]1C(=O)NCC(=O)N[C@@H](Cc1ccccc1)C(=O)O` (H-YGPGF-OH), “inactive”.
As to `CC(C)[C@H](NC(=O)[C@H](Cc1ccccc1)NC(=O)[C@H](CCC(N)=O)NC(=O)CNC(=O)[C@@H](N)Cc1ccc(O)cc1)C(=O)O` (H-YGQFV-OH), in experiment [2], the result was inactive.
In the case of `CC(C)[C@H](NC(=O)CNC(=O)[C@@H](N)Cc1ccc(O)cc1)C(=O)N[C@@H](Cc1ccccc1)C(=O)N[C@@H](C)C(=O)O` (H-YGVFA-OH), the result in experiment [2] was inactive.
Regarding `CC(C)[C@H](NC(=O)CNC(=O)[C@@H](N)Cc1ccc(O)cc1)C(=O)N[C@@H](Cc1ccccc1)C(=O)N[C@@H](CCC(=O)O)C(=O)O` (H-YGVFE-OH), the outcome in experiment [2] was inactive.
Same read-out and setting: the result for `CC[C@H](C)[C@H](NC(=O)[C@H](Cc1ccccc1)NC(=O)[C@@H](NC(=O)CNC(=O)[C@@H](N)Cc1ccc(O)cc1)C(C)C)C(=O)O` (H-YGVFI-OH) reads “inactive”; that for `CC(C)[C@H](NC(=O)CNC(=O)[C@@H](N)Cc1ccc(O)cc1)C(=O)N[C@@H](Cc1ccccc1)C(=O)N[C@@H](CCC(N)=O)C(=O)O` (H-YGVFQ-OH), “inactive”; that for `N[C@@H](Cc1ccc(O)cc1)C(=O)NCC(=O)N[C@@H](Cc1c[nH]c2ccccc12)C(=O)N[C@@H](Cc1ccccc1)C(=O)N[C@@H](Cc1c[nH]cn1)C(=O)O` (H-YGWFH-OH), “inactive”.
On to `NC(=O)C[C@H](NC(=O)[C@H](Cc1ccccc1)NC(=O)[C@H](Cc1c[nH]c2ccccc12)NC(=O)CNC(=O)[C@@H](N)Cc1ccc(O)cc1)C(=O)O` (H-YGWFN-OH), for which the result in experiment [2] was inactive.
Turning to `NC(=O)CC[C@H](NC(=O)[C@H](Cc1ccccc1)NC(=O)[C@H](Cc1c[nH]c2ccccc12)NC(=O)CNC(=O)[C@@H](N)Cc1ccc(O)cc1)C(=O)O` (H-YGWFQ-OH), in experiment [2], the outcome was inactive.
Still for that read-out and setting: the result for `CSCC[C@H](NC(=O)[C@H](Cc1c[nH]c2ccccc12)NC(=O)[C@H](Cc1c[nH]c2ccccc12)NC(=O)CNC(=O)[C@@H](N)Cc1ccc(O)cc1)C(=O)O` (H-YGWWM-OH) reads “inactive”; that for `N[C@@H](Cc1ccc(O)cc1)C(=O)NCC(=O)N[C@@H](Cc1ccc(O)cc1)C(=O)N[C@@H](Cc1ccccc1)C(=O)N[C@@H](Cc1ccccc1)C(=O)O` (H-YGYFF-OH), “inactive”.
On the same count and under the same terms, the result for `NC(=O)CC[C@H](NC(=O)[C@H](Cc1c[nH]c2ccccc12)NC(=O)[C@H](Cc1ccc(O)cc1)NC(=O)CNC(=O)[C@@H](N)Cc1ccc(O)cc1)C(=O)O` (H-YGYWQ-OH) reads “inactive”.
In the case of `NCCCC[C@H](NC(=O)[C@@H](N)Cc1ccc(O)cc1)C(=O)NCC(=O)NCC(=O)N[C@@H](Cc1ccccc1)C(=O)O` (H-YKGGF-OH), the result in experiment [2] was inactive.
On to `CC(C)C[C@H](NC(=O)[C@@H](N)Cc1ccc(O)cc1)C(=O)NCC(=O)NCC(=O)N[C@@H](Cc1ccccc1)C(=O)O` (H-YLGGF-OH), for which the result in experiment [2] was inactive.
The same measure, in the same setting: the result for `NC(=O)CC[C@H](NC(=O)[C@@H](N)Cc1ccc(O)cc1)C(=O)NCC(=O)NCC(=O)N[C@@H](Cc1ccccc1)C(=O)O` (H-YQGGF-OH) reads “inactive”; that for `CC(C)C[C@H](NC(=O)[C@H](Cc1ccccc1)NC(=O)CNC(=O)CNC(=O)[C@@H](N)Cc1ccc(O)cc1)C(=O)O` [ENKEPHALIN], “inactive”.
